Test results as given in ChEMBL document CHEMBL4825755 (J Med Chem, 2021).
In brackets after ≈: the same amount, converted by molar mass. Activity calls are given as the source filed them. The calls are words filed in the database; no cut-off is given here.

Assays:
[1] = molecular target: PI3-kinase p110-delta/p85-alpha (Homo sapiens, UniProt O00329); assay: Inhibition of recombinant human N-terminal His6-tagged full length P110delta/full length untagged human p85alpha expressed in baculovirus infected Sf21 insect cells using PIP2 as substrate preincubated for 15 mins followed by substrate addition and measured after 60 mins by HTRF assay
[2] = Clearance in Wistar Han rat at 1 mg/kg, iv administered as infusion for 1 hr by RP LC-MS/MS analysis; format: ADME, organism-based; conditions: in vivo
[3] = Intrinsic clearance in Wistar Han rat liver microsomes at 0.5 uM measured up to 45 mins in presence of NADPH by LC-MS/MS analysis; format: ADME, Microsome; conditions: read-out: CLH
[4] = Lipophilicity, log D of compound by chromatographic method; format: physicochemical
[5] = Solubility in pH 6.5 FaSSIF incubated for 4 hrs using amorphous form of sample by UV-HPLC method; format: physicochemical
[6] = molecular target: Phosphatidylinositol 3-kinase catalytic subunit type 3 (Homo sapiens, UniProt Q8NEB9); assay: Inhibition of VPS34 in human HL-60 cell extract measured after 2 hrs by kinobeads based chemoproteomic competition binding assay; format: tissue-based
serum albumin = serum albumin (Homo sapiens, UniProt P02768); assay: Binding affinity to human serum albumin by HPLC analysis; format: ADME, cell-free; conditions: read-out: PB (converted)
[7] = molecular target: PI3-kinase p110-alpha/p85-alpha (Homo sapiens, UniProt P42336); assay: Inhibition of recombinant human N-terminal His6-tagged full length P110alpha/full length untagged human p85alpha expressed in baculovirus infected Sf21 insect cells using PIP2 as substrate preincubated for 15 mins followed by substrate addition and measured after 60 mins by HTRF assay
in vitro = conditions: human, pooled liver microsomes
Description: Intrinsic clearance in pooled human liver microsomes at 0.5 uM measured up to 45 mins in presence of NADPH by LC-MS/MS analysis

[8] = Half life in Wistar Han rat at 1 mg/kg, iv administered as infusion for 1 hr by RP LC-MS/MS analysis; format: ADME, organism-based; conditions: in vivo
PI3K p110 beta/p85 alpha = PI3K p110 beta/p85 alpha (Homo sapiens, UniProt P42338); assay: Inhibition of recombinant human N-terminal His6-tagged full length P110beta/full length untagged human p85alpha expressed in baculovirus infected Sf21 insect cells using PIP2 as substrate preincubated for 15 mins followed by substrate addition and measured after 60 mins by HTRF assay
[9] = molecular target: Phosphatidylinositol 4,5-bisphosphate 3-kinase catalytic subunit gamma isoform (Homo sapiens, UniProt P48736); assay: Inhibition of recombinant human N-terminal His6-tagged full length P120gamma expressed in baculovirus infected Sf21 insect cells using PIP2 as substrate preincubated for 15 mins followed by substrate addition and measured after 60 mins by HTRF assay
[10] = molecular target: T1, Phosphatidylinositol 4,5-bisphosphate 3-kinase catalytic subunit delta isoform (Homo sapiens, UniProt O00329); assay: Inhibition of PI3Kdelta in human whole blood assessed as reduction in cytostim-stimulated IFNgamma production preincubated for 1 hr followed by cytostim stimulation and measured after 20 hrs by electrochemiluminescence assay
T1 sequence (O00329 whole entry): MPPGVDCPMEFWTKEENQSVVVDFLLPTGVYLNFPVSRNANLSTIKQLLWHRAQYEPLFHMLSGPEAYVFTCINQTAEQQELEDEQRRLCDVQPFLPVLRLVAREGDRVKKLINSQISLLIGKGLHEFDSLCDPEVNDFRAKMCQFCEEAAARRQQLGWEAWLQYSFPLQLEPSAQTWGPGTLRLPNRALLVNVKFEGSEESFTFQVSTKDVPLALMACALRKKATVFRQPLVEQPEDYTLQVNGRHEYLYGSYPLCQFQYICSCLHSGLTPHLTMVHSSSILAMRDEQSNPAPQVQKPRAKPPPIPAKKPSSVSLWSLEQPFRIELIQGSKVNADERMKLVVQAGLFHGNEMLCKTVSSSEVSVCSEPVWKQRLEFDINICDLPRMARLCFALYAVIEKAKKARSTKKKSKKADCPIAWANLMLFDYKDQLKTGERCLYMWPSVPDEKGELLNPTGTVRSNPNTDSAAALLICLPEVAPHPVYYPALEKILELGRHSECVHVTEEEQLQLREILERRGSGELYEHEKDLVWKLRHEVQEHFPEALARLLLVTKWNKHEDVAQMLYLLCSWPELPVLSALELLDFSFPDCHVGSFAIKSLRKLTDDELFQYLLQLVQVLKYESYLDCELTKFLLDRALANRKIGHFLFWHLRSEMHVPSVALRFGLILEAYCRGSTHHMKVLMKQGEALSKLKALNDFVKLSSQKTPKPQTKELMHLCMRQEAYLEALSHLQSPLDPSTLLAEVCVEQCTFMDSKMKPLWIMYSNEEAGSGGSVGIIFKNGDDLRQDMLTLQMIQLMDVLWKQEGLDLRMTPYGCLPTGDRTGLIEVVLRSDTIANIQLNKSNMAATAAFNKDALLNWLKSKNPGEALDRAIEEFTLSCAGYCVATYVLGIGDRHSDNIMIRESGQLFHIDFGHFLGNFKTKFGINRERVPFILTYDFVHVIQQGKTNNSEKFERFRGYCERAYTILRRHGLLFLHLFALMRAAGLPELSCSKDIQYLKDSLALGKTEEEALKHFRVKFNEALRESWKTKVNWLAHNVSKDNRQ

[11] = Volume of distribution at steady state in Wistar Han rat at 1 mg/kg, iv administered as infusion for 1 hr by RP LC-MS/MS analysis; format: ADME, organism-based; conditions: in vivo, read-out: Vdss
[12] = molecular target: Voltage-gated inwardly rectifying potassium channel KCNH2 (Homo sapiens, UniProt Q12809); assay: Inhibition of human ERG
[13] = molecular target: T1, Phosphatidylinositol 4,5-bisphosphate 3-kinase catalytic subunit delta isoform; assay: Inhibition of PI3Kdelta in human HL-60 cell extract measured after 2 hrs by kinobeads based chemoproteomic competition binding assay; format: tissue-based
[14] = AUC in Wistar Han rat at 1 mg/kg, po administered via gavage or 1 mg/kg, iv administered as infusion for 1 hr by RP LC-MS/MS analysis; format: ADME, organism-based; parameters: dose 1 mg/kg; conditions: in vivo
[15] = Volume of distribution at steady state in Wistar Han rat at 1 mg/kg, po administered via gavage or 1 mg/kg, iv administered as infusion for 1 hr by RP LC-MS/MS analysis; format: ADME, organism-based; conditions: in vivo, read-out: Vdss
[16] = Half life in Wistar Han rat at 1 mg/kg, po administered via gavage or 1 mg/kg, iv administered as infusion for 1 hr by RP LC-MS/MS analysis; format: ADME, organism-based; conditions: in vivo
[17] = Fraction unbound in human blood; format: ADME, tissue-based
[18] = Oral bioavailability in Wistar Han rat at 1 mg/kg administered via gavage by RP LC-MS/MS analysis; format: ADME, organism-based; conditions: in vivo
Cytochrome P450 3A4 = Cytochrome P450 3A4 (Homo sapiens, UniProt P08684); assay: Time-dependent inhibition of CYP3A4 in human liver microsomes using midazolam as substrate; format: ADME
Mus musculus = assay: Antiinflammatory activity in house dust-mite-induced Balb/c mouse model of inflammation assessed as reduction in BAL IL-5 level at 0.1 to 10 mg/kg administered 7 days prior to HDM re-challenge and measured 4 hrs post-HDM re-challenge; format: functional, organism-based; conditions: dose 0.1-10 mg/kg, time 7.0 day
[19] = Permeability of compound in MDCK cells; format: ADME, cell-based, Canis lupus familiaris; conditions: dog, read-out: permeability
[20] = Genotoxicity in Salmonella typhimurium by Ames test; format: toxicity; conditions: salmonella enterica subsp. enterica serovar typhimurium
[21] = Solubility in pH 6.5 FaSSIF incubated for 4 hrs using crystalline free base of sample by UV-HPLC method; format: physicochemical
[22] = Clearance in Wistar Han rat at 1 mg/kg, po administered via gavage or 1 mg/kg, iv administered as infusion for 1 hr by RP LC-MS/MS analysis; format: ADME, organism-based; conditions: in vivo
[23] = Fraction unbound in rat blood; format: ADME, tissue-based
Homo sapiens = species on record: Homo sapiens; assay: Selectivity ratio of IC50 for inhibition of recombinant human N-terminal His6-tagged full length P110delta/full length untagged human p85alpha expressed in baculovirus infected Sf21 insect cells to IC50 for inhibition of PI3Kdelta in human whole blood

serum albumin, sequence (P02768 whole entry): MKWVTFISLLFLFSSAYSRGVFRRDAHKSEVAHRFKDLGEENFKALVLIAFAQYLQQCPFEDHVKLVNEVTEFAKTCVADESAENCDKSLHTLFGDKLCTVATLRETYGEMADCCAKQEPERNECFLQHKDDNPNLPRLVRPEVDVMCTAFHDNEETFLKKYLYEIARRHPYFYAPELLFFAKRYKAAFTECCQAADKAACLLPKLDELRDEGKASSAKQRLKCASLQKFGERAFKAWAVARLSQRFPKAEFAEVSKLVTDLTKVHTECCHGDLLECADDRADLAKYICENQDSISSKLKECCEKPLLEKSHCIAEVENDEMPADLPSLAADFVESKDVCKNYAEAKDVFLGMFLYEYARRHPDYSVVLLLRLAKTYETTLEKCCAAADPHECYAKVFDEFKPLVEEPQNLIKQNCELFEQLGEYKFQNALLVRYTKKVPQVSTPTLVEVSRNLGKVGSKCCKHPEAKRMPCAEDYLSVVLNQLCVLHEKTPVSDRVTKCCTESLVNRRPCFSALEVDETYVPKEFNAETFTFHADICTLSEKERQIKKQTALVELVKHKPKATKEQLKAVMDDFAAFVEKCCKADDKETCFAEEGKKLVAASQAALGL
Phosphatidylinositol 4,5-bisphosphate 3-kinase catalytic subunit gamma isoform, sequence (P48736 whole entry, canonical isoform): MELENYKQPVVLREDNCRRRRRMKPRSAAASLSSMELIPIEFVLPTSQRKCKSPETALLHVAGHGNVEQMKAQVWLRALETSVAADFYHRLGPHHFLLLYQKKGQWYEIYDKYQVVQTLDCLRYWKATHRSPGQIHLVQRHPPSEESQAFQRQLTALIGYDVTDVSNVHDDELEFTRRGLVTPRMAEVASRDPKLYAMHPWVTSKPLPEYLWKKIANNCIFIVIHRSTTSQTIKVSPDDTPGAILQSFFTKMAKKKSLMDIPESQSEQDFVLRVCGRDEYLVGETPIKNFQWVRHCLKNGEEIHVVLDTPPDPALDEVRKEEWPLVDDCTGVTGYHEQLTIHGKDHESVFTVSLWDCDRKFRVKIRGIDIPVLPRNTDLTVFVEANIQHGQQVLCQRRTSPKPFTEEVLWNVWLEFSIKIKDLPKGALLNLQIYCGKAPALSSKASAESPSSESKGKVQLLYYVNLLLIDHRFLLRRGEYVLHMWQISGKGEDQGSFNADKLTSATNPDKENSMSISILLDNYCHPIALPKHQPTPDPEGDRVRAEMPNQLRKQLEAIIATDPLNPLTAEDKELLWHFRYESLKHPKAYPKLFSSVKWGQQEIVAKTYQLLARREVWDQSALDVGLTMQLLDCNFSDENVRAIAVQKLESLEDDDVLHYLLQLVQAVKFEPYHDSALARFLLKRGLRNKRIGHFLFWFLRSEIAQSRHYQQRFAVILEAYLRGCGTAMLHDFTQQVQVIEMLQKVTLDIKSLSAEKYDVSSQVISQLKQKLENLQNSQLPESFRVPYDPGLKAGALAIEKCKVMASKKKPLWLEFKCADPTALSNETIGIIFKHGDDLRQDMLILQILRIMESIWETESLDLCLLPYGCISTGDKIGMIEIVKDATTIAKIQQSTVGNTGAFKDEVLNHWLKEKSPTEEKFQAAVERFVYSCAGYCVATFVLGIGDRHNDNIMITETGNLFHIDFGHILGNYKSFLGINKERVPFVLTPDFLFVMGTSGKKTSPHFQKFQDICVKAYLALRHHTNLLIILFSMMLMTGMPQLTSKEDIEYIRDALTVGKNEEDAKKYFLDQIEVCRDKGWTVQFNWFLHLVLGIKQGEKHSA
PI3K p110 beta/p85 alpha, sequence (P27986 whole entry, canonical isoform): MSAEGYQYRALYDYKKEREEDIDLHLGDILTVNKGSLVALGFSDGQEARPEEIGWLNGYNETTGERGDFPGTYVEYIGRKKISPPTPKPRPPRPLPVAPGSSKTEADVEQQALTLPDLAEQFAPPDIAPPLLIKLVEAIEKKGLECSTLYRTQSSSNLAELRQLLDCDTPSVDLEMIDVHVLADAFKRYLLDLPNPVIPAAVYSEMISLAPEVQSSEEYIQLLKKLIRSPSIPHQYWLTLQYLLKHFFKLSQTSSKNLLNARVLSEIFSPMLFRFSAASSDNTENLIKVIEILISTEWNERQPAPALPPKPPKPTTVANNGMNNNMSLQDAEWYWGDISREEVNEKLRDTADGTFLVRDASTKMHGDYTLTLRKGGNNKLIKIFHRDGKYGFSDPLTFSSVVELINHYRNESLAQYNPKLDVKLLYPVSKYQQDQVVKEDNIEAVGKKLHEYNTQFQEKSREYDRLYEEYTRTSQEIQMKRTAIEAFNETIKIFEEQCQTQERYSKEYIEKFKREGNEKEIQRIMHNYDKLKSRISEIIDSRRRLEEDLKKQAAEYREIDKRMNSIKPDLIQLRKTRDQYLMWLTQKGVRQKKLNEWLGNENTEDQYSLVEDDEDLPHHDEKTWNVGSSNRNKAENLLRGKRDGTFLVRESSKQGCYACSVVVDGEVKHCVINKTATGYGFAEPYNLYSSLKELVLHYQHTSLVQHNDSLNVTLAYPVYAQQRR
PI3K p110 beta/p85 alpha, sequence (P42338 whole entry, canonical isoform): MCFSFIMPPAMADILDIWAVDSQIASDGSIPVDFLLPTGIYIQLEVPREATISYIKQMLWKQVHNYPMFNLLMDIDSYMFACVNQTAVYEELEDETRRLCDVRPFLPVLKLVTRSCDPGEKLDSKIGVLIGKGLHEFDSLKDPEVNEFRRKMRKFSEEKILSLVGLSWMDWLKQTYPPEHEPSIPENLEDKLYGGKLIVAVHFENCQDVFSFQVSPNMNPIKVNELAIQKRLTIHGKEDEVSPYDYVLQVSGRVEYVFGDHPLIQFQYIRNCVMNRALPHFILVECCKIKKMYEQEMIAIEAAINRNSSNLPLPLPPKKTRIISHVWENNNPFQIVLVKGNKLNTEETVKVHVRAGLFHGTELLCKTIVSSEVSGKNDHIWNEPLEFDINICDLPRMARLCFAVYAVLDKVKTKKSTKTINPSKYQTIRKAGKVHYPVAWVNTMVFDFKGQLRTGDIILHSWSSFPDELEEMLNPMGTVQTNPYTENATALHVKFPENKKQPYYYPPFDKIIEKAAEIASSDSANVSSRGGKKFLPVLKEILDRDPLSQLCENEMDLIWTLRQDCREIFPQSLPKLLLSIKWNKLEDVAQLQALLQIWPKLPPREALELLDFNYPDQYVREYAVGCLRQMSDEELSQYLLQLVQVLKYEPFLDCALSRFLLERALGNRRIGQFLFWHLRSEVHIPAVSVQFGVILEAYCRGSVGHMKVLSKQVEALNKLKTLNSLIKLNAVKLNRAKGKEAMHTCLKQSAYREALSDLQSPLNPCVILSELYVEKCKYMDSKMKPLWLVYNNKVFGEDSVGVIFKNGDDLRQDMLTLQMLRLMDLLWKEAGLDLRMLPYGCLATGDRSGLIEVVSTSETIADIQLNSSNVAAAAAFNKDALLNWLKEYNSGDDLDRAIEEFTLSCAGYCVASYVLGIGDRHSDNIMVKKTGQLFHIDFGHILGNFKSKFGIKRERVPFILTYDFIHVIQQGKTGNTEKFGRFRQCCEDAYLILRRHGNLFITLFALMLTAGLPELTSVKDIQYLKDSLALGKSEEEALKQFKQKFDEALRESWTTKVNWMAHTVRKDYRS
PI3-kinase p110-delta/p85-alpha, sequence (P27986 whole entry, one chain of several, the tested form may be a part): as the sequence (P27986 whole entry, canonical isoform) above
PI3-kinase p110-alpha/p85-alpha, sequence (P27986 whole entry): as the sequence (P27986 whole entry, canonical isoform) above
PI3-kinase p110-alpha/p85-alpha, sequence (P42336 whole entry): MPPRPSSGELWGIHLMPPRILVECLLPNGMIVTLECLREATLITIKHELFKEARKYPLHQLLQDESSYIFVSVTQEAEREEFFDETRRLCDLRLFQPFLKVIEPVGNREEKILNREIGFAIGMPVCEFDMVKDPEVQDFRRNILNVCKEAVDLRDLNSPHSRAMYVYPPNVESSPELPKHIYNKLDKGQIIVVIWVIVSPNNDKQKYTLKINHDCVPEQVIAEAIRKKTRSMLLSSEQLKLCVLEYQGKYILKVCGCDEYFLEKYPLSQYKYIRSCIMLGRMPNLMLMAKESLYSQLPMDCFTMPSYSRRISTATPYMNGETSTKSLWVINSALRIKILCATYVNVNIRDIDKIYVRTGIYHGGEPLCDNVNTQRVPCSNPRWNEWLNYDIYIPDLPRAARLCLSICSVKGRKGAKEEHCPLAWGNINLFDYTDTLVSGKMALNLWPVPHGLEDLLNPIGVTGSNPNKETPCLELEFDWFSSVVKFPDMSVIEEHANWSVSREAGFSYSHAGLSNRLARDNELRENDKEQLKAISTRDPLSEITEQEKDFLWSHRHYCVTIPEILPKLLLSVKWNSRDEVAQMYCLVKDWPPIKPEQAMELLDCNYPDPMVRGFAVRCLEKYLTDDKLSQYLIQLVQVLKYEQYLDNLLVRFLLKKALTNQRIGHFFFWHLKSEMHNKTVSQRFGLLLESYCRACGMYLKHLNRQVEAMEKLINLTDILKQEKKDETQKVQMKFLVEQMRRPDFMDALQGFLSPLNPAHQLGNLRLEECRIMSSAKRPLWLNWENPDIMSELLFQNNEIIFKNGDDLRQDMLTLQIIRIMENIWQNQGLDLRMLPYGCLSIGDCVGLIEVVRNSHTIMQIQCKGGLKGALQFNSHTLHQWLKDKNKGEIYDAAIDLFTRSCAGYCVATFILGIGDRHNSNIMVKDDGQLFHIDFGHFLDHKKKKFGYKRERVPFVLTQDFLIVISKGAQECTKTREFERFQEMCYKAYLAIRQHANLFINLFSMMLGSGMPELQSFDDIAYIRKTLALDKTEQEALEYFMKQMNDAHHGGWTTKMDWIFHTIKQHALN

Row | Structure (SMILES) | IC50 [1] [nM] | CLint scaled at 0.5 µM [3] [mL/min/kg] | chromatographic logD [4] | IC50 [7] [nM] | CLint scaled at 0.75 h, 0.5 µM (in vitro) [mL/min/kg] | IC50 (PI3K p110 beta/p85 alpha) [nM] | IC50 [9] [nM] | IC50 [10] [nM] | Ki [1] [nM] | other results
1 | COc1ncc(C2=CCOCC2)cc1S(=O)(=O)Nc1cncc(C#CCN2CCN(C(C)C)CC2)c1 | 6.31 | 0.54 | 1.8 | 5010 | < 0.4 | 5010 | 25100 | 50.1 | – | clearance [2]: 8.6 mL/min/kg; solubility at 4 h [5]: > 1000 µg/mL; IC50 [6]: 100 nM; fraction unbound (serum albumin): 0.17; half-life [8]: 1 h; Vd [11]: 0.3 L/kg; IC50 [12]: > 50100 nM; IC50 [13]: 1.58 nM
2 | COc1ncc(N2CCOCC2)cc1S(=O)(=O)Nc1ccnc(-c2ccc(CN3CCN(C(C)C)CC3)cc2F)c1 | 0.794 | < 0.46 | 1.9 | 1000 | < 0.4 | 5010 | 2000 | 6.31 | 0.0126 | AUC [14]: 2020 ng·h/mL; Vd [15]: 0.5 L/kg; half-life [16]: 2.6 h; fraction unbound [17]: 0.132; bioavailability [18]: 46%; TDI (Cytochrome P450 3A4): Not Active; Activity (Mus musculus): Active; Papp [19]: 2.3 ×10⁻⁶ cm/s; Activity [20]: Non-Toxic; solubility thermodynamic at 4 h [21]: 899 µg/mL (≈ 1540 µM); clearance [22]: 3.8 mL/min/kg; fraction unbound [23]: 0.021
3 | COc1ncc(C2=CCOCC2)cc1S(=O)(=O)Nc1cncc(C)c1 | 20 | – | – | 3160 | – | 398 | 5010 | 3980 | – | Ratio IC50 (Homo sapiens): 100; fraction unbound (serum albumin): 0.09
4 | COc1ncc(C2=CCOCC2)cc1S(=O)(=O)Nc1cncc(-c2ccc(CN3CCN(C(C)C)CC3)cc2)c1 | 0.316 | 0.61 | 2.9 | 398 | 2.28 | 794 | 2510 | 12.6 | 0.01 | –
5 | COc1ncc(C2=CCOCC2)cc1S(=O)(=O)Nc1cncc(-c2cccc(CN3CCCC3)c2)c1 | 6.31 | 1.1 | 2.4 | 5010 | 0.71 | 794 | 3980 | 200 | – | –
6 | COc1ncc(N2CCOCC2)cc1S(=O)(=O)Nc1cncc(-c2ccc(CN3CCCC3)cc2F)c1 | 3.16 | < 0.46 | 2.4 | 1000 | < 0.4 | 1580 | 2510 | 20 | – | clearance [2]: 8.8 mL/min/kg; half-life [8]: 0.53 h; Vd [11]: 0.6 L/kg
7 | COc1ncc(C2=CCOCC2)cc1S(=O)(=O)Nc1ccnc(C)c1 | 31.6 | – | – | 3980 | – | 316 | 3980 | 316 | – | Ratio IC50 (Homo sapiens): 10; fraction unbound (serum albumin): 0.21
8 | COc1ncc(C2=CCOCC2)cc1S(=O)(=O)Nc1cncc(-c2ccc(CN(C)C)cc2)c1 | 7.94 | 0.66 | 2 | 5010 | < 0.4 | 1000 | 10000 | 79.4 | – | –
9 | COc1ncc(N2CCOCC2)cc1S(=O)(=O)Nc1cncc(-c2ccc(CN3CCCC3)c(F)c2)c1 | 12.6 | < 0.46 | 2.2 | 3980 | < 0.4 | 2510 | 10000 | 63.1 | – | –
10 | COc1ncc(C2=CCOCC2)cc1S(=O)(=O)Nc1cncc(-c2ccc(CN3CCNCC3)cc2)c1 | 3.16 | 3.18 | 3.3 | 3160 | 2.21 | 794 | 7940 | 12.6 | 0.126 | –
11 | COc1ncc(N2CCOCC2)cc1S(=O)(=O)Nc1ccnc(-c2ccc(CN3CCN(C(C)C)CC3)cc2)c1 | 1.26 | < 0.46 | 1.4 | 2510 | < 0.4 | 10000 | 5010 | 12.6 | 0.0398 | –
